# Measured values taken from patent US20260138981A1, “DIHYDROFOLATE REDUCTASE INHIBITORS FOR ANTI-BIOTIC RESISTANT INFECTIONS” (THE TRUSTEES OF PRINCETON UNIVERSITY, priority 2022, published 2026).
# Key:
# [1] = Pharmacokinetic analysis after single oral dose; format: in vivo, mouse; conditions: single dose 200 mg/kg PO, CD-1 mice
# Protocol: FIG. 2A quantifies plasma concentration of fluorofolin over time after single oral administration to neutropenic CD1 mice. Each line is representative of an individual mouse.
# Pharmacokinetics determination: Care and handling of male CD-1 mice approximately 6-8 weeks old conformed to institutional animal care and use policies as carried out at Pharmaron, Inc. (Beijing, ROC).
# Pharmacokinetic properties were determined after a single dose of 200 mg/kg fluorofolin given PO. Plasma samples were taken from three mice at times 0.083, 0.25, 0.5, 1, 2, 4, 8, and 24 hours and quantitative analysis was performed using LC/MS/MS. Half-life was determined from plasma concentration after fluorofolin levels reached pseudo-equilibrium (4 hours for mouse 1 and 2, and 2 hours for mouse 3). Pharmacokinetic values were estimated using a non-compartmental model generated from WinNonlin 6.1. Pharmacokinetic analysis was carried out by Pharmaron, Inc. (Beijing, ROC).
# P. aeruginosa PA14 [2] = experiment: Checkerboard assay of fluorofolin and sulfamethoxazole; format: cell-based
# Protocol: FIG. 2B is a Checkerboard assay of fluorofolin and sulfamethoxazole. Z-values represent fractional inhibitory concentrations (FICs). FICs were determined by dividing the MIC of each drug when used in combination by the MIC when used alone. FIC of less than or equal to 0.5 is considered a synergistic effect.
# Cells were seeded in a similar manner as described above for MIC calculations. Sulfamethoxazole (Chem-Impex 00821) was diluted 1:2 down the rows of the plate, while fluorofolin was diluted 1:2 down the column of the plate. Fractional inhibitory concentrations (FICs) were calculated as [fluorofolin]/MICFluorofolin+[SMX]/MICSMX where [fluorofolin] and [SMX] are the concentrations of compounds in given well, which are dividing by the concentration of drug at the MIC for each compound. FIC values less than or equal to 0.5 are considered synergistic.
# P. aeruginosa PA14 [3] = experiment: Murine thigh infection model of PA14; format: in vivo, mouse; conditions: 24 hours
# Protocol: FIG. 2C quantifies treatment of mice with fluorofolin (SC) with or without SMX 100 mg/kg (IP).
# FIG. 2D characterizes Fluorofolin and SMX treatment of mice fed a diet of thymidine-supplemented chow during PA14 infection. Mice were treated 1 and 12 hours post infection (n=5 for each group). P values from Tukey's multiple comparisons test (P-values≤0.0001).
# To investigate the ability of fluorofolin to clear a P. aeruginosa infection in vivo, a murine thigh infection model of PA14 was employed. The maximum tolerated dose of fluorofolin was determined to be 25 mg/kg administered subcutaneously (SC). […] We note that this dose of SMX was previously used to mimic clinically-relevant levels of SMX used for cotreatment with TMP in humans. Mice were inoculated with 5.33 log CFU of P. aeruginosa PA14 CFU of PA14 and treated SC with fluorofolin at 25 mg/kg at 1 and 12 hours post infection. Thighs were harvested 24 hours post infection to determine bacterial load.
# It was also sought to support the feasibility of thymidine supplementation in vivo by testing the hypothesis that fluorofolin should remain active in the presence of thymidine supplementation. […]
# Female 5-6-week-old CD-1 mice were made neutropenic through intraperitoneal (IP) cyclophosphamide treatment (Cytoxan) prior to this study. […] In vivo efficacy was evaluated by the University of North Texas Health Science Center (Fort Worth, Texas).
# [4] = system: co-cultures of E. coli MG1655 and P. aeruginosa PA14; experiment: Growth competition assay (co-culture); format: cell-based; conditions: 50 μg/mL fluorofolin, 1:1 inoculum, overnight, CFU
# Protocol: FIG. 3C characterizes competition of P. aeruginosa PA14 and E. coli MG1655 in LB or TMI-supplemented LB media. PA14 and E. coli MG1655 were inoculated at a 1:1 ratio and grown overnight in the presence or absence of 50 μg/mL fluorofolin in each media condition. The following day CFU were counted on LB-agar or Pseudomonas selection agar plates to determine CFU/mL of each species. Data represent mean±SD of triplicate biological and triplicate technical replicates. P values were calculated using unpaired t-test using Prism 9 (P value≤0.001)
# Overnight cultures of P. aeruginosa PA14 or E. coli MG1655 were diluted 1:150 into LB Broth in the presence of DMSO or 50 μg/mL fluorofolin with or without TMI supplementation and grown for 16 hours at 37° C. Cultures of each species were grown separately as well as being mixed 1:1. Cultures were plated onto LB Agar or Pseudomonas Selection Agar (Sigma-Aldrich 17208) and CFU counting was carried out as described above. To control for appropriate, Pseudomonas selection, E. coli MG1655 was plated onto Pseudomonas Selection Agar and an absence of colonies was observed. The number of colonies on Pseudomonas Selection Agar plates was reported as the CFU/mL of P. aeruginosa. To calculate CFU/mL of E. coli MG1655, CFU/mL were determined from LB Agar plates, and the CFU/mL of P. aeruginosa were subtracted from these values.
# [5] = system: CDC & FDA Antibiotic Resistant P. aeruginosa Isolate Bank; experiment: CDC clinical isolate panel growth inhibition; format: cell-based; conditions: 50 μg/mL
# Protocol: Strains with growth inhibition>80% were considered sensitive to fluorofolin treatment.
# Clinical isolates^45 were inoculated into LB Broth a 96-well flat bottom plate and grown overnight to stationary phase at 37° C. […] Percent growth was calculated by dividing OD600 of fluorofolin antibiotic treated wells to vehicle only wells.
# [6] = system: P. aeruginosa PA01 and ATTC 27853, 5 ESKAPE pathogens; experiment: Growth inhibition of bacterial panel (summary statement); conditions: PA01, ATTC 27853 and all 5 ESKAPE pathogens tested
# Protocol: Overnight cultures were diluted 1:150 in LB Broth and added to a 96-well plate. Antibiotics were serially diluted 1:2 and added to columns of the 96-well plate and grown at 37° C. with continuous shaking. Cell growth was measured by optical density (OD600).
# 4-8 bacterial colonies of strains of interest were vortexed in saline and adjusted to an OD600 of 0.2. Strains were diluted 1:200 into CAMHB media into 96-well plates. Antibiotics were serially diluted 1:3 in DMSO, and 1 μL of each dilution was added to bacteria. The plates were incubated for 18-20 hours at 37° C. before observation.
structure (smiles),measurement,setting,value
Nc1nc(N)c2c(ccc3c2ccn3Cc2ccnc(F)c2)n1 [fluorofolin],half-life,[1],12.1 h
same,peak concentration (plasma),[1],4.0 µg/mL
same,MIC,"P. aeruginosa PA14 [2]; Pseudomonas aeruginosa, PA14, SMX 156 μg/mL, read-out: MIC of fluorofolin in the presence of SMX",0.4 µg/mL
same,"synergy (FIC, checkerboard)","P. aeruginosa PA14 [2]; combination of fluorofolin and sulfamethoxazole (SMX), PA14",significant synergy
same,growth of PA14 in thigh (bacterial load),"P. aeruginosa PA14 [3]; fluorofolin 25 mg/kg SC + SMX 100 mg/kg IP at 1 and 12 hours post infection, vs no treatment and SMX alone, P<0.0001",significantly inhibited the growth of PA14
same,"P. aeruginosa load in thigh, thymidine-supplemented diet","P. aeruginosa PA14 [3]; fluorofolin and SMX, mice fed thymidine-supplemented chow, vs untreated mice",significant reduction
same,"effect on co-culture, absence of TMI supplementation",[4]; LB,effectively killed both E. coli and P. aeruginosa
same,"effect on co-culture, presence of TMI supplementation",[4]; TMI-supplemented LB,selectively inhibited the growth of P. aeruginosa but not E. coli
same,sensitivity of isolates expressing KPC-5 and NDM-1 carbapenemase genes,[5],remained sensitive
same,"sensitivity of strains 7, 18 and 23 of the CDC panel (dfrB2)",[5],fluorofolin-sensitive
same,clinical isolates resistant,[5]; OD600 vs vehicle control,14.5%
same,concentration inhibiting growth,[6],less than 50 μg/mL
